Measured values: patent US12103904B2, “Benzoylglycine derivatives and methods of making and using same” (Duke University, priority 2016, dated 2024)
≈ marks a conversion by molar mass, not a printed value. One block for each molecule: values may come before it.

Tests used:
[1] = test system: N. gonorrhoeae F89; details: literature value (Unemo et al. 2011); cited from earlier work
[2] = test system: N. gonorrhoeae HO41; details: literature value (Ohnishi et al. 2011); cited from earlier work
[3] = test system: N. gonorrhoeae 35/02; experiment: Minimum Inhibitory Concentration (MIC) on GCB plates; assay type: cell-based, Neisseria gonorrhoeae; details: cephalosporin-intermediate resistant strain 35/02
Protocol: (§1) Non-piliated variants of the indicated strains of Neisseria gonorrhoeae were grown overnight on GCB plates, resuspended in GCB broth with Kellogg's supplements I and II (Kellogg et al. (1963) Neisseria gonorrhoeae. I. Virulence genetically linked to colonial variation. J Bacteriol 85, 1274-1279), 10 mM MgCl2, and 20 mM sodium bicarbonate at a final OD600 of 0.018 (˜1×10^7 cfu/ml). Aliquots (5 μl) of each strain was spotted onto GCB plates containing the compounds at 2-fold dilution intervals. The MIC was defined as the lowest concentration of antibiotic on which fewer than 5 colonies appeared after 24 hrs of incubation.
(§2) FA19 is an antibiotic-susceptible strain (Maness, M. J., and Sparling, P. F. (1973) Multiple antibiotic resistance due to a single mutation in Neisseria gonorrhoeae. J Infect Dis 128, 321-330). 35/02 is a cephalosporin-intermediate resistant strain of N. gonorrhoeae isolated in Sweden in 2002 (Lindberg et al. (2007) Neisseria gonorrhoeae isolates with reduced susceptibility to cefixime and ceftriaxone: association with genetic polymorphisms in penA, mtrR, porB1b, and ponA. Antimicrob Agents Chemother 51, 2117-2122). This strain contains a mosaic penA gene (encoding variants of Penicillin-Binding Protein 2) associated with cephalosporin resistance, but the strain is not fully resistant. […] Lastly, F89 has an MIC of ceftriaxone=2 μg/ml (Unemo et al. (2011) High-level cefixime- and ceftriaxone-resistant N. gonorrhoeae in France: novel penA mosaic allele in a successful international clone causes treatment failure. Antimicrob Agents Chemother 56, 1273-1280).
(§3) “MIC50” refers to an amount, concentration or dosage of a particular test compound that achieves a 50% inhibition of a growth of a target organism. […] Representative results are also illustrated in Table 1.

[4] = test system: N. gonorrhoeae FA19; experiment: as above; assay type: cell-based, Neisseria gonorrhoeae; details: antibiotic-susceptible strain FA19
Protocol: as §1, §2, §3

[5] = test system: N. gonorrhoeae F89; experiment: as above; assay type: cell-based, Neisseria gonorrhoeae; details: ceftriaxone-resistant strain F89
Protocol: as §1, §2, §3

[6] = test system: N. gonorrhoeae HO41; experiment: as above; assay type: cell-based, Neisseria gonorrhoeae; details: ceftriaxone-resistant strain HO41
Protocol: as §1, §2, §3

[7] = test system: multidrug-resistant H041 N. gonorrhoeae; experiment: murine gonococcal infection model (in vivo clearance); set-up: species or system mice
From the text: FIG. 2 illustrates in vivo efficacy of Example 3 in the murine gonococcal infection model. (A) efficacy of Example 3 administered intraperitoneally. […] (B) efficacy of Example 3 administrated orally. Mice were infected with multidrug-resistant H041 N. gonorrhoeae via an established protocol.
Female Mouse Model of Infection: Female BALB/c mice (Charles River Laboratories, NCI Frederick strain of inbred BALB/cAnNCr mice, strain code 555) were allowed to acclimate to the USU animal facility in autoclaved cages and bedding and with autoclaved water and chow for 10 days. After the acclimation period and […] to bacterial inoculation (day −4), vaginal smears were stained with a modified Wright's stain (Hem3, Fisher HealthCare Protocol) and examined to identify mice in anestrus or in the diestrus stage of the estrous cycle. […] On day −2, mice were inoculated vaginally with 20 μl of strain H041 rpsL suspended in PBS; suspensions were passed through a […] filter to remove aggregates and adjusted to the absorbance A600 reading at 600 nm (A600) that was predicted to be 5×10^5 CFU/ml, which is the concentration needed to inoculate mice with the number of viable gonococci needed to infect 80% of mice (infectious dose 80; ID80). […]
Vaginal swabs were quantitatively cultured for Gc on days −1 and 0 following vaginal inoculation to confirm infection prior to treatment. […]

[8] = test system: K. pneumoniae; experiment: MIC against clinical strains; assay type: cell-based; details: Klebsiella pneumoniae; K. pneumoniae clinical strains (n = 10)
Protocol: (§4) The antibiotic activities of the compounds useful in the methods of the disclosure are evaluated by measurements of minimum inhibitory concentrations (MICs) using E. coli, P. aeruginosa, K. pneumoniae and B. cepacia.

[9] = test system: P. aeruginosa; experiment: MIC against clinical strains; assay type: cell-based; details: Pseudomonas aeruginosa; P. aeruginosa clinical strains (n = 10)
Protocol: as §4

[10] = test system: E. coli; experiment: MIC against clinical strains; assay type: cell-based; details: Escherichia coli; E. coli clinical strains (n = 10)
Protocol: as §4

[11] = test system: B. cepacia; experiment: MIC against clinical strains; assay type: cell-based; details: Burkholderia cepacia; B. cepacia clinical strains (n = 5)
Protocol: as §4

[12] = test system: E. coli strain O18:H7:K1; experiment: murine E. coli intraperitoneal sepsis model; assay type: in vivo; details: mice infected with E. coli O18:H7:K1, single dose
From the text: FIG. 3 illustrates in vivo efficacy of Example 4 in the murine E. coli sepsis model. (A) dose response curves of Example 4 in a murine intraperitoneal sepsis model. Mice were infected with the E. coli strain O18:H7:K1.

Structure (SMILES): CO/N=C(\C(=O)N[C@@H]1C(=O)N2C(C(=O)O)=C(CSc3nc(=O)c(=O)[nH]n3C)CS[C@H]12)c1csc(N)n1 [ceftriaxone]
- MIC of ceftriaxone, strain F89 [1]: 2 µg/mL
- MIC of ceftriaxone, strain H041 [2]: 2 to 4 µg/mL

- MIC N. gonorrhoeae 35/02 [3]: 0.03
- MIC N. gonorrhoeae FA19 [4]: 0.02
- MIC N. gonorrhoeae F89 [5]: 0.03
- MIC N. gonorrhoeae HO41 [6]: 0.03
Structure (SMILES): C[C@@](O)(C(F)F)[C@H](NCCCc1ccc(-c2ccccc2)cc1)C(=O)NO

- MIC N. gonorrhoeae 35/02 [3]: 0.02
- MIC N. gonorrhoeae FA19 [4]: 0.002
- MIC N. gonorrhoeae F89 [5]: 0.007
- MIC N. gonorrhoeae HO41 [6]: 0.004
Structure (SMILES): C[C@@](O)(C(F)F)[C@H](NC(=O)c1ccc(-c2ccccc2)cc1)C(=O)NO [Example 2, N-((2S,3S)-4,4-difluoro-3-hydroxy-1-(hydroxyamino)-3-methyl-1-oxobutan-2-yl)-[1,1′-biphenyl]-4-carboxamide]

Structure (SMILES): CC(C)(C)C(=O)ONC(=O)[C@@H](NC(=O)c1ccc(-c2ccccc2)cc1)[C@](C)(O)C(F)F [Example 3, N-((2S,3S)-4,4-difluoro-3-hydroxy-3-methyl-1-oxo-1-((pivaloyloxy)amino)butan-2-yl)-[1,1′-biphenyl]-4-carboxamide]
- in vivo efficacy, administered orally ([7]; female BALB/c mice, vaginal infection with H041 rpsL, oral, four consecutive days): exhibited in vivo efficacy
- in vivo efficacy, administered intraperitoneally ([7]; mice infected with H041 N. gonorrhoeae, intraperitoneal, once daily vs twice daily at half of the dose): once daily treatment (circles) is more effective than the twice daily treatment at half of the dose

Structure (SMILES): C[C@@](O)(C(F)F)[C@H](NC(=O)c1ccc(C#CC#CC2CC2)cc1)C(=O)NO [Example 4, 4-(cyclopropylbuta-1,3-diyn-1-yl)-N-((2S,3S)-4,4-difluoro-3-hydroxy-1-(hydroxyamino)-3-methyl-1-oxobutan-2-yl)benzamide]
- MIC50 [8]: 0.06 µg/mL (≈ 0.159 µM)
- MIC90 [8]: 0.25 µg/mL (≈ 0.664 µM)
- MIC50 [9]: 0.16 µg/mL (≈ 0.425 µM)
- MIC90 [9]: 0.32 µg/mL (≈ 0.85 µM)
- MIC50 [10]: 0.02 µg/mL (≈ 0.0531 µM)
- MIC90 [10]: 0.02 µg/mL (≈ 0.0531 µM)
- MIC50 [11]: 0.03 µg/mL (≈ 0.0797 µM)
- MIC90 [11]: 0.13 µg/mL (≈ 0.345 µM)
- MIC N. gonorrhoeae 35/02 [3]: 0.063
- MIC N. gonorrhoeae FA19 [4]: 0.016
- MIC N. gonorrhoeae F89 [5]: 0.008
- MIC N. gonorrhoeae HO41 [6]: 0.026
- clearance of E. coli infection [12]: cleared E. coli infections in the majority of mice
